Data taken from article PMC2990756, “Quantitative High-Throughput Screening Identifies 8-Hydroxyquinolines as Cell-Active Histone Demethylase Inhibitors” (PLoS ONE, 2010).
Like-named read-outs stand apart in the source and are kept apart here.

How the values were obtained:
[1] = molecular target: T1, formaldehyde dehydrogenase (FDH) (Pseudomonas putida, UniProt P46154); test: FDH coupling enzyme counterscreen; assay type: biochemical
T1 construct: purchased Sigma-Aldrich
Description: Dimethylsulfoxide certified ACS grade (DMSO) was from Fisher, Inc. HEPES buffer was obtained from Gibco. […] Black solid-bottom 1,536-well assay plates were from Greiner Bio-One (Monroe, NC).

JMJD2E = molecular target: T2, JMJD2E (Homo sapiens, UniProt B2RXH2); test: JMJD2E FDH-coupled assay under low and high iron conditions (iron chelation profile); assay type: biochemical; parameters: The catalytic domain of human JMJD2E (residues 1–337); His6 (N); made in house; host or cells: E. coli; settings: 25 and 2.5 µM Fe(II)
T2 sequence (B2RXH2 1-337): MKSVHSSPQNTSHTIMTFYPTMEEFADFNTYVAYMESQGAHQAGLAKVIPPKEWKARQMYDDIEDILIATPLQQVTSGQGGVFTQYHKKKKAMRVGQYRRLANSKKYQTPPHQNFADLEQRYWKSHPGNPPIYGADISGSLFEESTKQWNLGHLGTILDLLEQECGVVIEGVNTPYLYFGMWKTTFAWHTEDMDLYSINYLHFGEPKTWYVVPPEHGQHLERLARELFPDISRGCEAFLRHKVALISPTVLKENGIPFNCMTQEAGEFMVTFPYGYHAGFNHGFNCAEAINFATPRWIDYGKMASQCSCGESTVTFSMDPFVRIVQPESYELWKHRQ
Protocol: The prioritized compounds were also evaluated in the screening assay using two different ferrous ion concentrations (termed high iron and low iron, respectively), in order to assess their propensity for iron chelation.
The ratio of IC50 values under high iron to low iron was calculated for each compound.

[2] = Table S1, FDH counterscreen, unit not in table, from Figure 2, read-out: qHTS Data: jmjd2e fdh IC50

T1 sequence (P46154 whole entry): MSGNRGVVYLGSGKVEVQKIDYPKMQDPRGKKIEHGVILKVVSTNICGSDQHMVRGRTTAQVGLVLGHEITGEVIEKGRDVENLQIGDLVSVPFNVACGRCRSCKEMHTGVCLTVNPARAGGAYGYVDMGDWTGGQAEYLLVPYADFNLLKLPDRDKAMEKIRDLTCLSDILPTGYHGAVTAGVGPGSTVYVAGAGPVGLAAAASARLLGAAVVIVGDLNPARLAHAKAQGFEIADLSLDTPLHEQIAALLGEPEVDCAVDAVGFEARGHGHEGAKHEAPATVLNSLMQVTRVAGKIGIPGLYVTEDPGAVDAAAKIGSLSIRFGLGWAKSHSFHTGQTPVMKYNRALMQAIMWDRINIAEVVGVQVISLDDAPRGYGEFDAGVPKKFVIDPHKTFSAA

| Structure (SMILES) | qHTS Data: jmjd2e fdh CurveClass ([1]; Table S1, FDH counterscreen) | also measured |
| --- | --- | --- |
| Cc1nc(NC(=O)c2oc3ccccc3c2C)sc1C(=O)N(C)C [compound 4262050] | Poor quality curve | – |
| O=C(CN1CCN(c2ncccn2)CC1)N1CCCC1.O=C(O)C(=O)O [compound 24790164] | Inactive | – |
| CC1(OC(=O)CCc2ccccc2)C(=O)C=C2C=C(c3ccc(C#N)cc3)N(C3CC3)C=C2C1=O (stereo not drawn) [SID 26725552] | – | IC50 ([1]; Figure 2, 0.025 U/mL FDH, 10 µM formaldehyde, read-out: IC50 values in μM, FDH): > 57 µM |
| Cc1noc(C)c1C(=O)NNc1ccc(C(C)C)cc1 [compound 26728365] | Inactive | – |
| O=C(O)CN(CCN(CC(=O)O)CC(=O)O)CC(=O)O [EDTA, reference compound] | – | ratio of IC50 values under high iron to low iron (JMJD2E): 5.9 |
| Fc1ccc(/C=C2\CCCC3=C2Nc2ncnn2C3c2ccc(F)cc2)cc1 (stereo not drawn) [compound 14745056] | – | IC50 [1, 2]: 10 µM |
| O=C(Cc1ccccc1)N1CCN(Cc2ccccn2)CC1 [SID 4263376] | – | IC50 ([1]; IC50 values in μM, FDH, Figure 2, 0.025 U/mL FDH, 10 µM formaldehyde): > 57 µM |
| FC(F)(F)c1ccccc1CN1CCN(C2CCCCCC2)CC1.O=C(O)C(=O)O [compound 22403162] | Inactive | – |
| O=C(Cc1ccccc1)N1CCN(Cc2ccccn2)CC1 [compound 4263376] | Inactive | – |
| CC(C)NC[C@H](O)c1ccc(O)c(O)c1 [compound 11112573] | Inactive | – |
| CC1(OC(=O)CCc2ccccc2)C(=O)C=C2C=C(c3ccc(C#N)cc3)N(C3CC3)C=C2C1=O (stereo not drawn) [compound 26725552] | Inactive | – |
| O=C(CN1CCN(Cc2ccccc2)CC1)NC(c1ccccc1)c1ccccc1.O=C(O)C(=O)O [compound 24822653] | Inactive | – |
| CN(C)CCCNCC(=O)Nc1ccc(Cl)cc1C(=O)c1ccccc1.O=C(O)C(=O)O [compound 24839839] | Inactive | – |
| CC1=C(C(N)=O)C(c2ccc3c(c2)OCO3)n2nc(-c3cccc(C)c3)nc2N1 (stereo not drawn) [compound 4245376] | Inactive | – |
| O=C(O)C(=O)O.O=C(c1ccccc1)N1CCN(CC2CC=CCC2)CC1 (stereo not drawn) [compound 844960] | Inconclusive | IC50 [1, 2]: 5.01 µM |
| COc1ccc(Cl)cc1CSc1ncn[nH]1 [compound 26662682] | – | IC50 [1, 2]: 0.32 µM |
| COc1cc(CNCCN2CCOCC2)ccc1OCc1c(Cl)cccc1Cl.Cl [compound 17505294] | Inactive | – |
| CC1CCN(CC(=O)NCCc2ccc(F)cc2)CC1.O=C(O)C(=O)O [compound 24804760] | Poor quality curve | – |
| O=C(NNC(=O)c1ccc(O)cc1O)c1ccc(Cl)cc1 [compound 17414133] | Inactive | – |
| CN(C)c1cc(N/N=C/c2ccc(Cl)cc2)nc(N(C)C)n1 [compound 24813304] | Poor quality curve | IC50 [1, 2]: 14.1 µM |
| COC(=O)CCC(=O)OC1(C)C(=O)C=C2C=C(C3CC3)N(CCc3ccccn3)C=C2C1=O (stereo not drawn) [compound 26725368] | Inactive | – |
| Cc1ccc(NC2=CC(=O)CC(C)(C)C2)c(N)c1 [compound 849268] | Inactive | – |
| O=C(O)C(=O)O.S=C(NCC1CCCO1)N1CCN(Cc2ccccc2)CC1 (stereo not drawn) [compound 24807070] | Inactive | – |
| Cc1cccc(N2C(=O)CC(Sc3ncn[nH]3)C2=O)c1 (stereo not drawn) [compound 24809940] | – | IC50 [1, 2]: 0.28 µM |
| S=c1nc(C2COc3ccccc3O2)[nH][nH]1 (stereo not drawn) [compound 24801312] | -1.3 | IC50 [1, 2]: 15.8 µM |
| COc1cc(C2C3=C(CCCC3=O)Nc3c2c(C)nn3-c2cccc(C)c2)cc(OC)c1O (stereo not drawn) [compound 26724424] | Inactive | – |
| Cc1cccc(NCc2ccc(O)c3ncccc23)c1 [compound 24790252] | Inactive | – |
| C/C(Cn1nnc([N+](=O)[O-])n1)=N\NC(=O)c1ccc(O)cc1O [compound 22414653] | Inactive | – |
| CC(CCc1ccccc1)NC(=O)CN1CCN(c2ccc(O)cc2)CC1 (stereo not drawn) [compound 24833440] | Inactive | – |
| Cc1cc(N(C)/N=C/c2ccccc2)nc(-c2ccccc2O)n1 [compound 24801833] | – | IC50 [1, 2]: 39.8 µM |
